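Assay format: 96-well plates, 48-hour exposure. The concentration for 50% growth inhibition is given as GI50.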 Calls of active or inactive are those of the source. Cut-off read from the data, not from the text of the source: active = GI50 up to about 1.1 µM and inactive = higher. Peptide text beside a SMILES is read from it. * marks the point of attachment. Boc = CC(C)(C)OC(=O)*; OBn = c1ccc(CO*)cc1; Bn = c1ccc(C*)cc1
Tests used:
Experiment in all cases: DTP human tumour cell line panel, 48 h
SK-MEL-28 = system: SK-MEL-28
SK-MEL-2 = system: SK-MEL-2
MCF7 = system: MCF7
BT-549 = system: BT-549
UO-31 = system: UO-31
OVCAR-8 = system: OVCAR-8
NCI-H460 = system: NCI-H460
ACHN = system: ACHN
U-251 = system: U-251
COLO 205 = system: COLO 205
Malme-3M = system: Malme-3M
PC-3 = system: PC-3
HL-60 = system: HL-60
HOP-62 = system: HOP-62
M14 = system: M14
IGROV-1 = system: IGROV-1
HT-29 = system: HT-29
MDA-MB-231 = system: MDA-MB-231
SN12C = system: SN12C
A498 = system: A498
KM12 = system: KM12
NCI-H23 = system: NCI-H23
SW-620 = system: SW-620
786-0 = system: 786-0
NCI-H226 = system: NCI-H226
RXF 393 = system: RXF 393
A549 = system: A549
OVCAR-5 = system: OVCAR-5
UACC-257 = system: UACC-257
HCC 2998 = system: HCC 2998
MDA-N = system: MDA-N
EKVX = system: EKVX
SR = system: SR
RPMI-8226 = system: RPMI-8226
TK-10 = system: TK-10
SNB-19 = system: SNB-19
MOLT-4 = system: MOLT-4
HOP-92 = system: HOP-92
HCT-15 = system: HCT-15
Hs-578T = system: Hs-578T
UACC-62 = system: UACC-62
SK-MEL-5 = system: SK-MEL-5
SNB-75 = system: SNB-75
K562 = system: K562
HCT-116 = system: HCT-116
CCRF-CEM = system: CCRF-CEM
NCI-H522 = system: NCI-H522
OVCAR-3 = system: OVCAR-3
SF-268 = system: SF-268
OVCAR-4 = system: OVCAR-4
CAKI-1 = system: CAKI-1
DU-145 = system: DU-145
MDA-MB-435 = system: MDA-MB-435
SF-295 = system: SF-295
SK-OV-3 = system: SK-OV-3
SF-539 = system: SF-539
NCI/ADR-RES = system: NCI/ADR-RES
LOX IMVI = system: LOX IMVI

Measured: GI50

CC(C)CC(NC(=O)C(CCC(=O)OCc1ccccc1)NC(=O)OC(C)(C)C)C(=O)NC(COCc1ccccc1)C(=O)NC(Cc1ccccc1)C(=O)O (configuration not stated) (Boc-E(OBn)LS(Bn)F-OH; configuration not given here)
> 100 µM: HCT-15
inactive: SK-MEL-28 > 100 µM | SK-MEL-2 > 100 µM | MCF7 > 100 µM | BT-549 > 100 µM | UO-31 > 100 µM | OVCAR-8 > 100 µM | NCI-H460 > 100 µM | ACHN > 100 µM | U-251 > 100 µM | COLO 205 > 100 µM | Malme-3M 46.9 µM | PC-3 > 100 µM | HL-60 > 100 µM | HOP-62 > 100 µM | M14 > 100 µM | IGROV-1 > 100 µM | HT-29 > 100 µM | MDA-MB-231 > 100 µM | SN12C > 100 µM | A498 > 100 µM | KM12 > 100 µM | NCI-H23 > 100 µM | SW-620 > 100 µM | 786-0 > 100 µM | NCI-H226 > 100 µM | RXF 393 > 100 µM | A549 > 100 µM | OVCAR-5 > 100 µM | UACC-257 > 100 µM | HCC 2998 > 100 µM | MDA-N > 100 µM | EKVX > 100 µM | SR > 100 µM | RPMI-8226 > 100 µM | TK-10 > 100 µM | SNB-19 > 100 µM | MOLT-4 > 100 µM | HOP-92 > 100 µM | Hs-578T > 100 µM | UACC-62 > 100 µM | SK-MEL-5 > 100 µM | SNB-75 96.8 µM | K562 > 100 µM | HCT-116 > 100 µM

O=C1CN(c2ccc(Cl)cc2)C(=O)CN1CCN1CC(=O)N(c2ccc(Cl)cc2)CC1=O
> 100 µM: HCT-15
inactive: SK-MEL-28 > 100 µM | MCF7 > 100 µM | CCRF-CEM > 100 µM | BT-549 > 100 µM | UO-31 > 100 µM | OVCAR-8 > 100 µM | NCI-H460 > 100 µM | ACHN > 100 µM | U-251 > 100 µM | NCI-H522 > 100 µM | OVCAR-3 > 100 µM | COLO 205 > 100 µM | Malme-3M > 100 µM | PC-3 > 100 µM | HL-60 > 100 µM | SF-268 > 100 µM | HOP-62 > 100 µM | M14 > 100 µM | IGROV-1 > 100 µM | HT-29 > 100 µM | SN12C > 100 µM | A498 > 100 µM | KM12 > 100 µM | NCI-H23 > 100 µM | SW-620 > 100 µM | 786-0 > 100 µM | RXF 393 > 100 µM | A549 > 100 µM | OVCAR-5 > 100 µM | UACC-257 > 100 µM | HCC 2998 > 100 µM | MDA-N > 100 µM | OVCAR-4 > 100 µM | EKVX > 100 µM | SR > 100 µM | RPMI-8226 > 100 µM | TK-10 > 100 µM | CAKI-1 > 100 µM | SNB-19 > 100 µM | DU-145 > 100 µM | MOLT-4 > 100 µM | HOP-92 > 100 µM | MDA-MB-435 > 100 µM | Hs-578T > 100 µM | UACC-62 > 100 µM | SK-MEL-5 > 100 µM | SF-295 > 100 µM | SK-OV-3 > 100 µM | SNB-75 > 100 µM | HCT-116 > 100 µM

CC(=O)OCC1OC(n2c(-c3ccccc3)cc(-c3ccccc3)c(C#N)c2=O)C(OC(C)=O)C(OC(C)=O)C1OC(C)=O (configuration not stated)
inactive: RXF 393 56 µM

N/N=C(\Nc1ccccc1)SCc1ccccc1
> 100 µM: HCT-15
inactive: SK-MEL-28 > 100 µM | SK-MEL-2 > 100 µM | MCF7 > 100 µM | CCRF-CEM > 100 µM | BT-549 > 100 µM | UO-31 > 100 µM | OVCAR-8 > 100 µM | NCI-H460 > 100 µM | ACHN > 100 µM | U-251 > 100 µM | NCI-H522 > 100 µM | OVCAR-3 > 100 µM | COLO 205 > 100 µM | Malme-3M > 100 µM | PC-3 > 100 µM | HL-60 > 100 µM | HOP-62 > 100 µM | M14 > 100 µM | IGROV-1 > 100 µM | HT-29 > 100 µM | MDA-MB-231 > 100 µM | SN12C > 100 µM | A498 > 100 µM | KM12 > 100 µM | SF-539 > 100 µM | NCI-H23 > 100 µM | SW-620 > 100 µM | 786-0 > 100 µM | NCI-H226 > 100 µM | RXF 393 > 100 µM | NCI/ADR-RES > 100 µM | A549 > 100 µM | OVCAR-5 > 100 µM | UACC-257 > 100 µM | HCC 2998 > 100 µM | MDA-N > 100 µM | OVCAR-4 > 100 µM | SR > 100 µM | RPMI-8226 > 100 µM | CAKI-1 > 100 µM | SNB-19 > 100 µM | DU-145 > 100 µM | MOLT-4 > 100 µM | HOP-92 > 100 µM | MDA-MB-435 > 100 µM | LOX IMVI > 100 µM | UACC-62 > 100 µM | SK-MEL-5 > 100 µM | SF-295 > 100 µM | SK-OV-3 > 100 µM | SNB-75 41.7 µM | K562 > 100 µM | HCT-116 > 100 µM

Cn1cc(NC(=O)c2cc(NC(=O)c3cc(NC=O)cn3C)cn2C)cc1C(=O)NCCC(=N)N [STALLIMYCIN]
inactive: SK-MEL-28 > 100 µM | SK-MEL-2 > 100 µM | MCF7 > 100 µM | CCRF-CEM > 100 µM | BT-549 > 100 µM | UO-31 > 100 µM | OVCAR-8 > 100 µM | NCI-H460 > 100 µM | ACHN > 100 µM | U-251 > 100 µM | OVCAR-3 > 100 µM | COLO 205 > 100 µM | Malme-3M 25.5 µM | PC-3 > 100 µM | HL-60 > 100 µM | SF-268 > 100 µM | HOP-62 > 100 µM | M14 > 100 µM | IGROV-1 > 100 µM | HT-29 > 100 µM | MDA-MB-231 > 100 µM | SN12C > 100 µM | A498 87.9 µM | KM12 > 100 µM | SF-539 > 100 µM | NCI-H23 > 100 µM | SW-620 > 100 µM | 786-0 > 100 µM | NCI-H226 7.87 µM | RXF 393 > 100 µM | NCI/ADR-RES > 100 µM | OVCAR-5 > 100 µM | UACC-257 > 100 µM | EKVX > 100 µM | RPMI-8226 > 100 µM | TK-10 > 100 µM | CAKI-1 > 100 µM | SNB-19 > 100 µM | DU-145 > 100 µM | MOLT-4 > 100 µM | MDA-MB-435 > 100 µM | Hs-578T 53.1 µM | LOX IMVI > 100 µM | UACC-62 61.4 µM | SK-MEL-5 > 100 µM | SF-295 > 100 µM | SK-OV-3 > 100 µM | SNB-75 22.8 µM | K562 > 100 µM | HCT-116 > 100 µM
> 100 µM: HCT-15

Nc1c2c(nc3ccccc13)-c1ccccc1CC2
inactive: SK-MEL-28 10.4 µM | SK-MEL-2 11 µM | MCF7 1.85 µM | CCRF-CEM 3.4 µM | BT-549 13.2 µM | OVCAR-8 4.37 µM | NCI-H460 2.12 µM | ACHN 3.56 µM | U-251 4.17 µM | NCI-H522 8.67 µM | COLO 205 3.76 µM | Malme-3M 8.49 µM | PC-3 3.59 µM | SF-268 7.82 µM | IGROV-1 3.82 µM | MDA-MB-231 3.88 µM | SN12C 4.06 µM | A498 3.16 µM | SF-539 3.24 µM | NCI-H23 10.6 µM | SW-620 3.15 µM | 786-0 3.52 µM | NCI-H226 12.1 µM | NCI/ADR-RES 5.32 µM | UACC-257 2.82 µM | HCC 2998 1.43 µM | MDA-N 4.19 µM | SR 2.33 µM | RPMI-8226 4.09 µM | TK-10 3.96 µM | MOLT-4 2.38 µM | HOP-92 8.09 µM | Hs-578T 16.4 µM | LOX IMVI 4.34 µM | UACC-62 9.68 µM | SK-MEL-5 4.04 µM | K562 3.56 µM | HCT-116 3.76 µM
3.96 µM: HCT-15
active: HL-60 0.942 µM
